Target: T1, glucocerebrosidase (Gcase) (Homo sapiens, UniProt P04062)
T1 construct: micellar solution containing 10 nM GCase and 100 nM saposin C
T1 sequence (P04062 40-536): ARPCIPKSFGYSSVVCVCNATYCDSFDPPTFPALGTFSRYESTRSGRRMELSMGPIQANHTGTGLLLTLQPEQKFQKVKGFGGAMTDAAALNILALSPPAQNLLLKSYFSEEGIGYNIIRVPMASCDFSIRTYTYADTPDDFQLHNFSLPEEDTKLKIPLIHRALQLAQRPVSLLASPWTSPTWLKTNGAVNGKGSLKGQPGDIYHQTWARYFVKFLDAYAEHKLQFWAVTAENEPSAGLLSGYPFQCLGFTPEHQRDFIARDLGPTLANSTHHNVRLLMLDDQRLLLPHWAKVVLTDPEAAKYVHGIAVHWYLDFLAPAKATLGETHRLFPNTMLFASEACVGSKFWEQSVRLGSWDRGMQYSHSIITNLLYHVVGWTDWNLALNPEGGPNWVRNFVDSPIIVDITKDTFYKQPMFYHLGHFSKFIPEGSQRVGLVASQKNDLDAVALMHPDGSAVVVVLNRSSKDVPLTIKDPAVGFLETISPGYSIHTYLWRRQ
Assay: Glucocerebrosidase (Gcase) activation assay with 4-methylumbelliferyl-beta-D-glucopyranoside substrate, saposin C and phosphatidylserine/triton micelles, fluorescence readout
Type: biochemical
Conditions: for Percent Gcase Activation, 0.1 μM Test Compound: test compound at 0.1 μM; for Percent Gcase Activation, 1 μM Test Compound: test compound at 1.0 μM
Outline: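 Fluorescence (ex 365 nm, em 440 nm) read after glycine pH 12.5 stop of a 15 min room-temperature reaction. GCase 10 nM plus saposin C 100 nM in PS/triton micelles, pH 4.7, preincubated 30 min with compound; substrate solution held 2 mM 4-MU-beta-glucoside. Screened at 1.0 and 0.1 μM; 8-point, 3-fold curves from 5 μM top.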

Compound | Percent Gcase Activation, 0.1 μM Test Compound | Percent Gcase Activation, 1 μM Test Compound
Cc1cc(-c2cccc(Cl)n2)nc2c(C(=O)N[C@H](C)C(F)(F)F)cnn12 [III-235] | ** (Gcase activation in the range of 10% up to 20%) | +++ (Gcase activation greater than 60%)
Cc1cc(-c2cccc(Cl)n2)nc2c(C(=O)N[C@@H](C)C(F)(F)F)cnn12 [III-236] | *** (greater than 20% Gcase activation) | +++ (Gcase activation greater than 60%)
Cc1cc(-c2cccc(Cl)n2)nc2c(C(=O)NC(C3CC3)C(F)(F)F)cnn12 (stereo not drawn) [III-237] | *** (greater than 20% Gcase activation) | +++ (Gcase activation greater than 60%)
CCc1cc(N2CCOCC2)nc2c(C(=O)NC(C3CC3)C(F)(F)F)cnn12 (stereo not drawn) [III-238] | * (less than 10% Gcase activation) | +++ (Gcase activation greater than 60%)
Cc1cc(-c2ccon2)nc2c(C(=O)NC(C3CC3)C(F)(F)F)cnn12 (stereo not drawn) [III-239] | ** (Gcase activation in the range of 10% up to 20%) | +++ (Gcase activation greater than 60%)
Cc1cc(-c2ccon2)nc2c(C(=O)N[C@H](C3CC3)C(F)(F)F)cnn12 [III-240] | *** (greater than 20% Gcase activation) | +++ (Gcase activation greater than 60%)
Cc1cc(-c2ccon2)nc2c(C(=O)N[C@@H](C3CC3)C(F)(F)F)cnn12 [III-241] | *** (greater than 20% Gcase activation) | +++ (Gcase activation greater than 60%)
Cc1oc(C#N)cc1-c1cc(C)n2ncc(C(=O)NC(C3CC3)C(F)(F)F)c2n1 (stereo not drawn) [III-242] | *** (greater than 20% Gcase activation) | +++ (Gcase activation greater than 60%)
Cc1oc(C#N)cc1-c1cc(C)n2ncc(C(=O)N[C@H](C3CC3)C(F)(F)F)c2n1 [III-243] | *** (greater than 20% Gcase activation) | +++ (Gcase activation greater than 60%)
Cc1oc(C#N)cc1-c1cc(C)n2ncc(C(=O)N[C@@H](C3CC3)C(F)(F)F)c2n1 [III-244] | *** (greater than 20% Gcase activation) | +++ (Gcase activation greater than 60%)
Cc1cc(C#N)c(-c2cc(C)n3ncc(C(=O)NC(C4CC4)C(F)(F)F)c3n2)o1 (stereo not drawn) [III-245] | * (less than 10% Gcase activation) | + (less than 30% Gcase activation)
Cc1ncc(-c2cc(C)n3ncc(C(=O)NC(C4CC4)C(F)(F)F)c3n2)o1 (stereo not drawn) [III-246] | ** (Gcase activation in the range of 10% up to 20%) | +++ (Gcase activation greater than 60%)
Cc1nc(-c2cc(C)n3ncc(C(=O)NC(C4CC4)C(F)(F)F)c3n2)co1 (stereo not drawn) [III-249] | ** (Gcase activation in the range of 10% up to 20%) | +++ (Gcase activation greater than 60%)
Cc1nc(-c2cc(C)n3ncc(C(=O)NC(C)(C)C4CC4)c3n2)co1 [III-251] | ** (Gcase activation in the range of 10% up to 20%) | +++ (Gcase activation greater than 60%)
Cc1coc(-c2cc(C)n3ncc(C(=O)N[C@H](C4CC4)C(F)(F)F)c3n2)n1 [III-255] | ** (Gcase activation in the range of 10% up to 20%) | +++ (Gcase activation greater than 60%)
Cc1cc(N2CCCN(C(C)C)C2=O)nc2c(C(=O)NC(C3CC3)C(F)(F)F)cnn12 (stereo not drawn) [III-257] | ** (Gcase activation in the range of 10% up to 20%) | ++ (Gcase activation in the range of 30% up to 60%)
Cc1cc(N2CCCN(CC(F)(F)F)C2=O)nc2c(C(=O)NC(C3CC3)C(F)(F)F)cnn12 (stereo not drawn) [III-260] | * (less than 10% Gcase activation) | ++ (Gcase activation in the range of 30% up to 60%)
COc1ccncc1-c1cc(C)n2ncc(C(=O)NC(C3CC3)C(F)(F)F)c2n1 (stereo not drawn) [III-263] | * (less than 10% Gcase activation) | ++ (Gcase activation in the range of 30% up to 60%)

Continued, values first:

Percent Gcase Activation, 0.1 μM Test Compound | Percent Gcase Activation, 1 μM Test Compound | Compound
*** (greater than 20% Gcase activation) | +++ (Gcase activation greater than 60%) | Cc1ncc(-c2cc(C)n3ncc(C(=O)N[C@H](C4CC4)C(F)(F)F)c3n2)o1 [III-247]
*** (greater than 20% Gcase activation) | +++ (Gcase activation greater than 60%) | Cc1ncc(-c2cc(C)n3ncc(C(=O)N[C@@H](C4CC4)C(F)(F)F)c3n2)o1 [III-248]
*** (greater than 20% Gcase activation) | +++ (Gcase activation greater than 60%) | Cc1cc(-c2occc2C#N)nc2c(C(=O)NC(C3CC3)C(F)(F)F)cnn12 (stereo not drawn) [III-250]
* (less than 10% Gcase activation) | +++ (Gcase activation greater than 60%) | Cc1ncc(-c2cc(C)n3ncc(C(=O)NC(C)(C)C4CC4)c3n2)o1 [III-252]
*** (greater than 20% Gcase activation) | +++ (Gcase activation greater than 60%) | Cc1cnc(-c2cc(C)n3ncc(C(=O)NC(C4CC4)C(F)(F)F)c3n2)o1 (stereo not drawn) [III-253]
*** (greater than 20% Gcase activation) | +++ (Gcase activation greater than 60%) | Cc1coc(-c2cc(C)n3ncc(C(=O)NC(C4CC4)C(F)(F)F)c3n2)n1 (stereo not drawn) [III-254]
*** (greater than 20% Gcase activation) | +++ (Gcase activation greater than 60%) | Cc1coc(-c2cc(C)n3ncc(C(=O)N[C@@H](C4CC4)C(F)(F)F)c3n2)n1 [III-256]
* (less than 10% Gcase activation) | + (less than 30% Gcase activation) | Cc1cc(N2CCCN(C(C)C)C2=O)nc2c(C(=O)NC(C)(C)C)cnn12 [III-258]
* (less than 10% Gcase activation) | + (less than 30% Gcase activation) | Cc1cc(N2CCCN(C(C)C)C2=O)nc2c(C(=O)NC(C)C(F)(F)F)cnn12 (stereo not drawn) [III-259]
* (less than 10% Gcase activation) | + (less than 30% Gcase activation) | Cc1cc(N2CCCN(C(C)C)C2=O)nc2c(C(=O)NC(C)(C)C3CC3)cnn12 [III-261]
* (less than 10% Gcase activation) | + (less than 30% Gcase activation) | Cc1cc(N2CCCN(C(C)C)C2=O)nc2c(C(=O)NC(C)(C)C(F)(F)F)cnn12 [III-262]
*** (greater than 20% Gcase activation) | +++ (Gcase activation greater than 60%) | Cc1cc(-c2ccc(F)o2)nc2c(C(=O)NC(C3CC3)C(F)(F)F)cnn12 (stereo not drawn) [III-264]
